Experimental findings from patent publication EP1902732A1, “PROPHYLACTIC/THERAPEUTIC AGENT FOR HER2-EXPRESSING CANCER” (Takeda Pharmaceutical Company Limited, priority 2005, dated 2006) are described below.

One experiment concerns AMPK. The experiment can be described thus: Western blotting of AMPK protein amount in BT-474 cells. The experiment is classed as cell-based, human. Particulars: Example 6, 1, 0.333, 0.111, 0.033 and 0.011 µmol/L, two hours. The procedure:
(§1) Human HER2-expressing human breast cancer cell line BT-474 (purchased from American Tissue Culture Collection (ATCC)) was seeded into a 24-multiwell plate (BT-474: 1.2 x 10^5 cells/well), and cultured overnight in a carbon dioxide gas incubator (5% CO2, 37°C). Mitochondrial respiratory chain complex 1-inhibiting compound rotenone (Wako Pure Chemical Industries) was added in 5 steps at final concentrations of 1, 0.333, 0.111, 0.033 and 0.011 µmol/L while continuing culture. Two hours later, the broth was removed and the cells were lysed with an SDS sample buffer (200 µL). Then, this cell lysate was used to perform western blotting analysis. Specifically, this cell lysate (8 µL) was separated by an SDS-PAGE method (gel concentration: 7.5-15%) (Analytical Biochemistry, No. 166, pp. 368-379, 1987) and transferred to a nitrocellulose membrane (BioRad). Then, an antibody specific to phosphorylated HER2 (Cell signaling technology, Code# 2244), an AMPK antibody specific to AMPK (Cell signaling technology, Code# 2535) and an anti-phosphorylated AMPK antibody specific to phosphorylated AMPK (Cell signaling technology, Code# 2532) were used to detect the antibody by chemiluminescent detection with an ECL system (Amersham) to quantify an amount of phosphorylated protein with LAS-1000 plus image analysis device (FUJIFILM).
A general note: A western blot detects proteins with antibodies after separation by electrophoresis.

The subject of the next experiment is phosphorylated AMPK. Description: Western blotting of phosphorylated AMPK in BT-474 cells. The experiment is classed as cell-based, human. Particulars: Example 6, 1, 0.333, 0.111, 0.033 and 0.011 µmol/L, two hours. The procedure: as §1
Experiment [1] deals with Akt. Description: Western blotting of phosphorylated Akt in BT-474 cells. The conditions noted are these: Example 2, 4-fold dilution series from 1 µmol/L in 5 steps, 2 hours. Type of experiment: cell-based, human. How it is done: (§2) Human HER2-expressing human breast cancer cell line BT-474 (purchased from American Tissue Culture Collection (ATCC)) was seeded into a 24-multiwell plate (BT-474: 1.2 x 10^5 cells/well), and cultured overnight in a carbon dioxide gas incubator (5% CO2, 37°C). A 4-fold dilution series of a mitochondrial respiratory chain complex inhibiting compound (complex I: rotenone, complex III: antimycin, complex V: oligomycin: Wako Pure Chemical Industries) was added starting from a final concentration of 1 µmol/L in 5 steps while continuing culture. After 2 hours, the broth was removed, and the cells were lysed with an SDS sample buffer (200 µL). Western blotting analysis was performed as follows. Specifically, this cell lysate (8 µL) was separated by an SDS-PAGE method (gel concentration: 7.5-15%) (Analytical Biochemistry, No. 166, pp. 368-379, 1987), and transferred to a nitrocellulose membrane (BioRad). Then, an antibody specific to phosphorylated HER2 (Cell signaling technology, Code# 2244), an anti-phosphorylated Akt antibody specific to downstream antiapoptotic signal transducing molecule Akt (Cell signaling technology, Code# 9271) and an anti-phosphorylated MAPK antibody specific to downstream proliferation signal transducing molecule MAPK (Cell signaling technology, Code# 9101) were used to detect the antibody with an ECL system (Amersham) to quantify the amount of phosphorylated protein by an image analysis.
(§3) Human HER2-expressing human cancer cell line BT-474 (purchased from ATCC) was seeded into a 24-multiwell plate (1.2 x 10^5 cells/well) and cultured overnight in a carbon dioxide gas incubator (20% O2, 5% CO2, 37°C). A 3-fold dilution series of metformin that activates AMPK (The Journal of Biological Chemistry, Vol. 279, No. 42, pp. 43940-43951, 2004) was added starting from a final concentration of 15 mmol/L in 5 steps while continuing culture. Two hours later, the broth was removed and the cells were lysed with an SDS sample buffer (200 µL). This cell lysate (8 µL) was separated by an SDS-PAGE method (gel concentration: 7.5-15%) (Analytical Biochemistry, No. 166, pp. 368-379, 1987). Then, western blotting analysis was performed in the same manner as in Example 1 to quantify phosphorylated HER2, phosphorylated Akt and phosphorylated MAPK.

Experiment [2] concerns HER2. The experiment can be described thus: Western blotting of phosphorylated HER2 in BT-474 cells. The experiment is classed as cell-based, human. How it is done:
as §2, §3, §1
Human HER2-expressing human breast cancer cell line BT-474 (purchased from American Tissue Culture Collection (ATCC)) was seeded into a 24-multiwell plate (BT-474: 1.2 x 10^5 cells/well) and cultured overnight in a carbon dioxide gas incubator (5% CO2, 37°C). […]

A further experiment concerns EGFR. The experiment can be described thus: Western blotting of phosphorylated EGFR in A431 cells. Type of experiment: cell-based, human. Particulars: Example 9, 4-fold dilution series from 1 µmol/L in 5 steps, 2 hours. The procedure:
Human EGFR-expressing human epidermal cancer cell line A431 (purchased from American Tissue Culture Collection (ATCC)) was seeded into a 24-multiwell plate (A431:6x10^4 cells/well), and cultured overnight in a carbon dioxide gas incubator (5% CO2, 37°C). A 4-fold dilution series of a mitochondria complex-inhibiting compound (complex I: rotenone, Wako Pure Chemical Industries) was added in 5 steps starting from a final concentration of 1 µmol/L while continuing culture. The broth was removed 2 hours later, and cells were lysed with an SDS sample buffer (200 µL). Western blotting analysis was conducted as follows. Specifically, this cell lysate (8 µL) was separated by an SDS-PAGE method (gel concentration: 7.5-15%) (Analytical Biochemistry, No. 166, pp. 368-379, 1987) and transferred onto a nitrocellulose membrane (BioRad). Subsequently, an antibody specific to phosphorylated EGFR (Cell signaling technology, Code# 2232) was used to detect an antibody with an ECL system (Amersham) to quantify the amount of phosphorylated protein by an image analysis.

The subject of experiment [3] is MAPK. Description: Western blotting of phosphorylated MAPK in BT-474 cells. The experiment is classed as cell-based, human. The conditions noted are these: Example 2, 4-fold dilution series from 1 µmol/L in 5 steps, 2 hours. The procedure: as §2, §3
For experiment [4], the system named is MDA-MB-231 breast cancer cell. The experiment can be described thus: Sulphorhodamine-B (SRB) cell proliferation assay. The experiment is classed as cell-based. The conditions noted are these: Homo sapiens, MDA-MB-231, 120 h; HER2-nonexpressing cell; cultured for five days; SRB staining. How it is done: (§4) BT-474 breast cancer cell (purchased from ATCC) was used as a human HER2-expressing cell and MDA-MB-231 breast cancer cell (purchased from ATCC) was used as a HER2-nonexpressing cell. These cells were seeded into a 96-multiwell plate (BT-474: 3.0 x 10^4 cells/well, MDA-MB-231: 1.5 x 10^4 cells/well), and cultured overnight in a carbon dioxide gas incubator (5% CO2, 37°C). A 4-fold dilution series of a mitochondrial respiratory chain complex-inhibiting compound (complex I: rotenone) was added starting from a final concentration of 10 µmol/L in 10 steps, and further cultured for five days. At the end of culture, the broth containing rotenone was removed, the cells were washed with a phosphoric acid buffer, immobilized with 5% trichloroacetic acid solution, and added with 0.4% (W/V) sulphorhodamine-B (SRB) dye solution (dissolved in 1% acetic acid) for staining the cellular protein. Subsequently, the SRB dye solution was removed from the plate and the plate was washed with a 1% acetic acid solution. Then, 100 µL 10 mM Tris buffer solution was added for extraction and dye dissolution, and absorbance at an absorption wavelength of 550 nm was measured to determine the cellular quantity as a protein amount (Journal of National Cancer Institute. Vol. 82, pp. 1107-1112, 1990). […]
Background: The SRB assay estimates cell density from bound dye.

The subject of experiment [5] is BT-474 breast cancer cell. Description: Sulphorhodamine-B (SRB) cell proliferation assay. The conditions noted are these: Homo sapiens, BT-474, 120 h; HER2-expressing cell; cultured for five days; SRB staining. The experiment is classed as cell-based. How it is done: as §4
The subject of experiment [6] is Akt. Description: Western blotting of phosphorylated Akt in SK-BR-3 cells. Particulars: Example 4, medium glucose 0.1 mg/mL, 5 mg/mL, two hours. The experiment is classed as cell-based, human. The procedure: (§5) HER2-expressing human cancer cell line SK-BR-3 (purchased from ATCC) was seeded into a 24-multiwell plate (4.0 x 10^5 cells/well) and cultured overnight in a carbon dioxide gas incubator (5% CO2, 37°C). Then, the medium was exchanged for a medium with a glucose content of 0.1 mg/mL and cultured for another 2 hours. A glucose antimetabolite 2-deoxyglucose was added to a final concentration of 5 mg/mL. Two hours later, the broth was removed and the cells were lysed with an SDS sample buffer (200 µL). This cell lysate (8 µL) was separated by an SDS-PAGE method (gel concentration: 7.5-15%) (Shagger et al., Analytical Biochemistry, No. 166, pp. 368-379, 1987). Then, western blotting analysis was performed in the same manner as in Example 1 to detect phosphorylated HER2, phosphorylated Akt and phosphorylated MAPK.

Experiment [7] relates to MAPK. Description: Western blotting of phosphorylated MAPK in SK-BR-3 cells. Type of experiment: cell-based, human. Particulars: Example 4, medium glucose 0.1 mg/mL, 5 mg/mL, two hours. How it is done:
as §5

For experiment [8], the system named is HER2. Description: Western blotting of phosphorylated HER2 in SK-BR-3 cells. The experiment is classed as cell-based, human. The conditions noted are these: Example 4, medium glucose 0.1 mg/mL, 5 mg/mL, two hours. How it is done: as §5

One may read the IC50 as the midpoint of a concentration-inhibition curve.

With `C=C(C)[C@H]1Cc2c(ccc3c2O[C@@H]2COc4cc(OC)c(OC)cc4[C@@H]2C3=O)O1` [rotenone], in the experiment on AMPK, the “amount of AMPK protein itself” value is listed as “A quantitative change was not observed”. Besides, the “amount of AMPK phosphorylation” value with phosphorylated AMPK is reported as “increased dose-dependently”. The Akt phosphorylation result in the experiment with Akt [1] is “suppressions of Akt and MAPK phosphorylations were also confirmed”. The HER2 phosphorylation result is on record as “suppression of HER2 phosphorylation was confirmed” in the experiment on HER2 [2] (Example 2, 4-fold dilution series from 1 µmol/L in 5 steps, 2 hours); “decreased dose-dependently” in the experiment with HER2 [2] (Example 6, 1, 0.333, 0.111, 0.033 and 0.011 µmol/L, two hours). The EGFR phosphorylation result with EGFR is “No suppression of EGFR phosphorylation was observed”. In addition, the MAPK phosphorylation result with MAPK [3] was “suppressions of Akt and MAPK phosphorylations were also confirmed”. The IC50 in experiment [4] amounted to 500 nM; in experiment [5], 4 nM.

On to `O=CC[C@@H](O)[C@H](O)[C@H](O)CO` [2-deoxyglucose], for which the Akt phosphorylation entry with Akt [6] is given as “suppressed phosphorylation of each protein”. The MAPK phosphorylation result in the experiment on MAPK [7] is “suppressed phosphorylation of each protein”. Besides, the HER2 phosphorylation result with HER2 [8] is “suppressed phosphorylation of each protein”.
